Experimental data: article PMC5775429, “LY2087101 and dFBr share transmembrane binding sites in the (α4)3(β2)2 Nicotinic Acetylcholine Receptor” (Scientific Reports, 2018)

Assays:
Test in all cases: Two-electrode voltage-clamp of ACh-induced currents in Xenopus oocytes
Format in all cases: cell-based
[1] = molecular target: T1, (α4C254S)3(β2)2 nAChR (Homo sapiens, UniProt P17787+P43681, C254S)
T1 construct: expressed in transfected cells; host or cells: Xenopus laevis oocytes injected with cRNA
Experimental: (§1) For amino acid substitutions within the α4 nAChR subunit, point mutations were introduced into pSP64ployA plasmid with cDNA encoding for human α4 nAChR subunit with mutagenic primer pairs using the Quick Change II Site-Directed Mutagenesis Kit (Agilent Technologies) then confirmed by DNA sequencing (GENEWIZ, LLC, South Plainfield, NJ). cRNA transcripts suitable for oocyte expression were prepared in vitro from linearized plasmids [α3 (BamH1), α4 (AseI), β2 (PvuII), β4 (XhoI)] using mMESSAGE mMACHINE high yield capped RNA transcription kits (Ambion) and purified on NucAway Spin column (Invitrogen). cRNA concentration was determined by spectroscopy (Concentration (ug/ul) = Abs260 * 40), aliquoted and stored at −80 °C until used.
(§2) Ovarian lobules were surgically harvested from oocytes-positive female Xenopus laevis (NASCO, Fort Atkinson, WI) according to an animal use protocol approved by the Texas A&M Health Sciences Center Institutional Animals Care and Use Committee. The Texas A&M Health Sciences Center Research Facility is registered as an animal research facility with the United States Department of Agriculture and is fully accredited by the American Association for Accreditation of Laboratory Animal Care (AAALAC). For oocytes defolliculation, ovarian lobes were treated with 3 mg/ml collagenase type 2 (Worthington Biomedical, Lakewood, NJ) in Ca + 2-free buffer (85 mM NaCl, 2.5 mM KCl, 1 mM MgCl2, 5 mM HEPES, pH 7.6). Collagenase treatment was allowed to proceed for 3 hours at room temperature with gentle shaking then oocytes were washed several times with buffer to remove collagenase then with ND96-gentamicine buffer. Healthy Stage V and VI oocytes were visually selected and maintained at 18 °C in modified ND96-gentamicine buffer (96 mM NaCl, 2 mM KCl, 1.8 mM CaCl2, 1 mM MgCl2, 5 mM HEPES, 50 µg/ml gentamicin, pH 7.6). Oocytes were injected with 50–100 ng of the desired nAChR subunits cRNA mix at ratios of 8α:1β or 1α:8β to express nAChRs with subunit stoichiometries of 3α:2β (low agonist sensitivity) or 2α:3β (high agonist sensitivity), respectively.
(§3) Oocytes were continuously perfused with recording buffer (100 mM NaCl, 2 mM KCl, 1 mM CaCl2, 0.8 mM MgCl2, 1 mM EGTA, 10 mM Hepes, pH 7.5) except during periods of drug applications.

[2] = molecular target: (α4C259F)3(β2)2 nAChR (Homo sapiens, UniProt P43681, C259F); conditions: 10 µM ACh + 1 µM PAM vs 10 µM ACh alone
Experimental: as §1, §2, §3

[3] = molecular target: (α4C259V)3(β2)2 nAChR (Homo sapiens, UniProt P43681, C259V); conditions: 10 µM ACh + 1 µM PAM vs 10 µM ACh alone
Experimental: as §1, §2, §3

[4] = molecular target: (α4E308V)3(β2)2 nAChR (Homo sapiens, UniProt P43681, E308V)
Experimental: as §1, §2, §3

[5] = molecular target: T2, (α4F312V)3(β2)2 nAChR (Homo sapiens, UniProt P17787+P43681, F312V)
T2 construct: expressed in transfected cells; host or cells: Xenopus laevis oocytes injected with cRNA
Experimental: as §1, §2, §3

[6] = molecular target: (α4G613L)3(β2)2 nAChR (Homo sapiens, UniProt P43681, G613L)
Experimental: as §1, §2, §3

[7] = molecular target: T3, (α4I275V)3(β2)2 nAChR (Homo sapiens, UniProt P17787+P43681, I275V)
T3 construct: expressed in transfected cells; host or cells: Xenopus laevis oocytes injected with cRNA
Experimental: as §1, §2, §3

[8] = molecular target: T4, (α4I315A)3(β2)2 nAChR (Homo sapiens, UniProt P17787+P43681, I315A)
T4 construct: expressed in transfected cells; host or cells: Xenopus laevis oocytes injected with cRNA
Experimental: as §1, §2, §3

[9] = molecular target: T5, (α4L260M)3(β2)2 nAChR (Homo sapiens, UniProt P17787+P43681, L260M)
T5 construct: expressed in transfected cells; host or cells: Xenopus laevis oocytes injected with cRNA
Experimental: as §1, §2, §3

[10] = molecular target: T6, (α4L291V)3(β2)2 nAChR (Homo sapiens, UniProt P17787+P43681, L291V)
T6 construct: expressed in transfected cells; host or cells: Xenopus laevis oocytes injected with cRNA
Experimental: as §1, §2, §3

[11] = molecular target: T7, (α4M605V)3(β2)2 nAChR (Homo sapiens, UniProt P17787+P43681, M605V)
T7 construct: expressed in transfected cells; host or cells: Xenopus laevis oocytes injected with cRNA
Experimental: as §1, §2, §3

[12] = molecular target: (α4S258M)3(β2)2 nAChR (Homo sapiens, UniProt P43681, S258M)
Experimental: as §1, §2, §3

[13] = molecular target: T8, (α4T261D)3(β2)2 nAChR (Homo sapiens, UniProt P17787+P43681, T261D)
T8 construct: expressed in transfected cells; host or cells: Xenopus laevis oocytes injected with cRNA
Experimental: as §1, §2, §3

[14] = molecular target: T9, (α4T313C)3(β2)2 nAChR (Homo sapiens, UniProt P17787+P43681, T313C)
T9 construct: expressed in transfected cells; host or cells: Xenopus laevis oocytes injected with cRNA
Experimental: as §1, §2, §3

[15] = molecular target: T10, (α4V609A)3(β2)2 nAChR (Homo sapiens, UniProt P17787+P43681, V609A)
T10 construct: expressed in transfected cells; host or cells: Xenopus laevis oocytes injected with cRNA
Experimental: as §1, §2, §3

[16] = molecular target: T11, α4β2 nAChR (Homo sapiens, UniProt P17787+P43681); conditions: 1 μM PAM
T11 construct: expressed in transfected cells; host or cells: Xenopus laevis oocytes injected with cRNA
Experimental: (§4) Next, Xenopus oocytes were injected with RNA mixes of […], α3:β4, […], or α4:β4 at ratios of 8:1, 1:1, or 1:8 to express nAChRs with different subunit composition and with various α:β ratios.
as §2, §3

[17] = molecular target: T12, α4β4 nAChR (Homo sapiens, UniProt P30926+P43681); conditions: 1 μM PAM
T12 construct: expressed in transfected cells; host or cells: Xenopus laevis oocytes injected with cRNA
Experimental: as §4, §2, §3

[18] = 10 µM ACh + 1 µM PAM vs 10 µM ACh alone
[19] = ACh concentration-response curve, normalized to 1 mM ACh alone
[20] = read-out: LY2087101 potentiation EC50
[21] = normalized to 10 µM ACh alone, not from curve fitting, maximum seen at any concentration up to 10 µM LY2087101
[22] = normalized to peak current by 10 µM ACh alone, curve fit

T6 sequence (P43681 29-627 L291V limits assumed): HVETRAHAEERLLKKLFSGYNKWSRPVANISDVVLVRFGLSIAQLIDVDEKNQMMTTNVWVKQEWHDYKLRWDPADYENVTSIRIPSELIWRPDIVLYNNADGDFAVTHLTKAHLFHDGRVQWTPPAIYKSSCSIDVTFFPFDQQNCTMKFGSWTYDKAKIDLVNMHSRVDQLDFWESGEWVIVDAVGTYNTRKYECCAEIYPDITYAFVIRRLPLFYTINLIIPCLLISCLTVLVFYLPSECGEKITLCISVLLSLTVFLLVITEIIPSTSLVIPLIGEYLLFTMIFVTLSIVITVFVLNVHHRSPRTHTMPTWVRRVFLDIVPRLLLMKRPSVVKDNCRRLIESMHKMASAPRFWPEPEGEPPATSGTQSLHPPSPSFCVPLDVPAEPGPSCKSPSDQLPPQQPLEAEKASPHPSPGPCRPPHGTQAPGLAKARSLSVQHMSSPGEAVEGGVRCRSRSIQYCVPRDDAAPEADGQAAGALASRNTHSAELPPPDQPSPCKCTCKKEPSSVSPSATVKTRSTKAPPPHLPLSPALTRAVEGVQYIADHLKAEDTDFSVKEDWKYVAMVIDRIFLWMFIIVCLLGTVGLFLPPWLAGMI
T6 sequence (P17787 26-502): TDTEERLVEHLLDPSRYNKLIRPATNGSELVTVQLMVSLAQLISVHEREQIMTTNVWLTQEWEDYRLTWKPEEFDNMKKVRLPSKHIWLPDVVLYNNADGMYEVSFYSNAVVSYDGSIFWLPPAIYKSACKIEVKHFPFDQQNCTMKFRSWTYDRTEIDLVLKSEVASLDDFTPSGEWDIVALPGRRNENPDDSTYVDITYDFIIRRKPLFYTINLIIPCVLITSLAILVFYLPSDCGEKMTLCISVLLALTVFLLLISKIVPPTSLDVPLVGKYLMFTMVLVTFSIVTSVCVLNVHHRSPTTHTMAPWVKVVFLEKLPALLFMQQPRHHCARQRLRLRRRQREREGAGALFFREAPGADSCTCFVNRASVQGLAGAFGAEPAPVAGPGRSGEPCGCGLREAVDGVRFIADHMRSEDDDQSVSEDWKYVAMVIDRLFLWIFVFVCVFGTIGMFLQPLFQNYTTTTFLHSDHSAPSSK
T2 sequence (P43681 29-627 F312V limits assumed): as the sequence (P43681 29-627 L291V limits assumed) above, with V263L, F284V counted along it
T2 sequence (P17787 26-502): as the sequence (P17787 26-502) above
T8 sequence (P43681 29-627 T261D limits assumed): as the sequence (P43681 29-627 L291V limits assumed) above, with T233D, V263L counted along it
T8 sequence (P17787 26-502): as the sequence (P17787 26-502) above
Chain of (α4S258M)3(β2)2 nAChR (P43681 29-627 S258M limits assumed): as the sequence (P43681 29-627 L291V limits assumed) above, with S230M, V263L counted along it
Chain of (α4S258M)3(β2)2 nAChR (P17787 26-502 partner): as the sequence (P17787 26-502) above
T4 sequence (P43681 29-627 I315A limits assumed): as the sequence (P43681 29-627 L291V limits assumed) above, with V263L, I287A counted along it
T4 sequence (P17787 26-502): as the sequence (P17787 26-502) above
T9 sequence (P43681 29-627 T313C limits assumed): as the sequence (P43681 29-627 L291V limits assumed) above, with V263L, T285C counted along it
T9 sequence (P17787 26-502): as the sequence (P17787 26-502) above
T1 sequence (P43681 29-627 C254S limits assumed): as the sequence (P43681 29-627 L291V limits assumed) above, with C226S, V263L counted along it
T1 sequence (P17787 26-502): as the sequence (P17787 26-502) above
Chain of (α4E308V)3(β2)2 nAChR (P43681 29-627 E308V limits assumed): as the sequence (P43681 29-627 L291V limits assumed) above, with V263L, E280V counted along it
Chain of (α4E308V)3(β2)2 nAChR (P17787 26-502 partner): as the sequence (P17787 26-502) above
T5 sequence (P43681 29-627 L260M limits assumed): as the sequence (P43681 29-627 L291V limits assumed) above, with L232M, V263L counted along it
T5 sequence (P17787 26-502): as the sequence (P17787 26-502) above
T7 sequence (P43681 29-627 M605V limits assumed): as the sequence (P43681 29-627 L291V limits assumed) above, with V263L, M577V counted along it
T7 sequence (P17787 26-502): as the sequence (P17787 26-502) above
T3 sequence (P43681 29-627 I275V limits assumed): as the sequence (P43681 29-627 L291V limits assumed) above, with I247V, V263L counted along it
T3 sequence (P17787 26-502): as the sequence (P17787 26-502) above
T10 sequence (P43681 29-627 V609A limits assumed): as the sequence (P43681 29-627 L291V limits assumed) above, with V263L, V581A counted along it
T10 sequence (P17787 26-502): as the sequence (P17787 26-502) above
Chain of (α4G613L)3(β2)2 nAChR (P43681 29-627 G613L limits assumed): as the sequence (P43681 29-627 L291V limits assumed) above, with V263L, G585L counted along it
Chain of (α4G613L)3(β2)2 nAChR (P17787 26-502 partner): as the sequence (P17787 26-502) above
Chain of (α4C259V)3(β2)2 nAChR (P43681 29-627 C259V limits assumed): as the sequence (P43681 29-627 L291V limits assumed) above, with C231V, V263L counted along it
Chain of (α4C259V)3(β2)2 nAChR (P17787 26-502 partner): as the sequence (P17787 26-502) above
T12 sequence (P43681 29-627 limits assumed): as the sequence (P43681 29-627 L291V limits assumed) above, with V263L counted along it
T12 sequence (P30926 22-498): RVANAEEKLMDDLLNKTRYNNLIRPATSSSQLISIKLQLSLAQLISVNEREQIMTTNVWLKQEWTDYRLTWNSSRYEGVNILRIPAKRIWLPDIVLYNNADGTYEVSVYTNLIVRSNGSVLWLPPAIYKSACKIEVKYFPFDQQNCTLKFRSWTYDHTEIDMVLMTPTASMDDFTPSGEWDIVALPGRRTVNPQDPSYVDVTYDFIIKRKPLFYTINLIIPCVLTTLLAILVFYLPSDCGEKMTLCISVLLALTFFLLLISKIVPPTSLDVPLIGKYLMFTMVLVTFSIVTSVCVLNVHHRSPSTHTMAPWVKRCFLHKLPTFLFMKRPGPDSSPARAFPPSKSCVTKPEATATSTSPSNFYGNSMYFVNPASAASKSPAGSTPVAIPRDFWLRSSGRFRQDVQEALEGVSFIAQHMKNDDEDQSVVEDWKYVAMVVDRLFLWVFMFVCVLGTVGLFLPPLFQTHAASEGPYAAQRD
T11 sequence (P43681 29-627 limits assumed): as the sequence (P43681 29-627 L291V limits assumed) above, with V263L counted along it
T11 sequence (P17787 26-502): as the sequence (P17787 26-502) above
Chain of (α4C259F)3(β2)2 nAChR (P43681 29-627 C259F limits assumed): as the sequence (P43681 29-627 L291V limits assumed) above, with C231F, V263L counted along it
Chain of (α4C259F)3(β2)2 nAChR (P17787 26-502 partner): as the sequence (P17787 26-502) above

How did the “R, potentiation ratio (PR)” value [1, 18] turn out when `Cc1nc(Nc2ccc(F)cc2)sc1C(=O)c1ccsc1` [LY2087101, [2-[(4-Fluorophenyl)amino]-4-methyl-5-thiazolyl]-3-thienylmethanone] was run?
Its value is 8.4 ± 1.5.

What about the “ACh Imax in the presence of 1 µM LY2087101” value (shortened to “ACh Imax in the presence”) [1, 19] of the same compound?
The value was 185 ± 04%.

And the EC50 [1, 20]?
The EC50 was 1.7 ± 0.2 µM.

And the “R, potentiation ratio (PR)” value [2]?
The value was 3.2 ± 0.4.

And the “R, potentiation ratio (PR)” value [3]?
The value was 5.2 ± 0.6.

What about the “R, potentiation ratio (PR)” value [4, 18] of the same compound?
The value was 1.7 ± 0.2.

And the “LY2087101 potentiation Imax%” value [4, 21]?
Its value is 270 ± 30%.

And the “R, potentiation ratio (PR)” value [5, 18]?
The value was 2.5 ± 0.2.

What about the “LY2087101 potentiation Imax%” value [5, 21] of the same compound?
The value was 269 ± 43%.

What about the EC50 [5, 20] of the same compound?
Its EC50 is 0.1 ± 0.01 µM.

What about the “R, potentiation ratio (PR)” value [6, 18] of the same compound?
The value was 1.09 ± 0.1.

And the “ACh Imax in the presence” value [6, 19]?
Its value is 112 ± 9%.

And the “R, potentiation ratio (PR)” value [7, 18]?
Its value is 3.7 ± 0.5.

What about the EC50 [7, 20] of the same compound?
Its EC50 is 1.7 ± 0.2 µM.

What about the “R, potentiation ratio (PR)” value [8, 18] of the same compound?
Its value is 2.5 ± 0.2.

What about the “LY2087101 potentiation Imax%” value [8, 22] of the same compound?
The value was 405 ± 5%.

And the EC50 [8, 20]?
The EC50 was 1.2 ± 0.5 µM.

And the “R, potentiation ratio (PR)” value [9, 18]?
Its value is 1.6 ± 0.2.

What about the “ACh Imax in the presence” value [9, 19] of the same compound?
Its value is 264 ± 80%.

And the “LY2087101 potentiation Imax%” value [9, 22]?
Its value is 269 ± 21%.

And the EC50 [9, 20]?
Its EC50 is 2.5 ± 0.6 µM.

And the “R, potentiation ratio (PR)” value [10, 18]?
Its value is 3.7 ± 0.6.

And the “LY2087101 potentiation Imax%” value [10, 22]?
The value was 719 ± 20%.

And the EC50 [10, 20]?
Its EC50 is 1.6 ± 0.1 µM.

What about the “R, potentiation ratio (PR)” value [11, 18] of the same compound?
The value was 3.8 ± 1.1.

What about the “LY2087101 potentiation Imax%” value [11, 22] of the same compound?
The value was 856 ± 3%.

What about the EC50 [11, 20] of the same compound?
Its EC50 is 2.7 ± 0.02 µM.

And the “R, potentiation ratio (PR)” value [12, 18]?
The value was 1.5 ± 0.2.

And the “ACh Imax in the presence” value [12, 19]?
Its value is 232 ± 10%.

And the “LY2087101 potentiation Imax%” value [12, 21]?
The value was 254 ± 12%.

And the “R, potentiation ratio (PR)” value [13, 18]?
Its value is 1.6 ± 0.1.

And the “ACh Imax in the presence” value [13, 19]?
The value was 180 ± 23%.

And the “LY2087101 potentiation Imax%” value [13, 22]?
Its value is 215 ± 29%.

What about the EC50 [13, 20] of the same compound?
The EC50 was 2.4 ± 1.6 µM.

And the “R, potentiation ratio (PR)” value [14, 18]?
The value was 2.1 ± 0.2.

And the “LY2087101 potentiation Imax%” value [14, 22]?
The value was 196 ± 23%.

What about the EC50 [14, 20] of the same compound?
The EC50 was 0.7 ± 0.1 µM.

And the “R, potentiation ratio (PR)” value [15, 18]?
Its value is 5.7 ± 1.1.

And the EC50 [15, 20]?
The EC50 was 1 ± 0.3 µM.

What about the “potentiation of ACh responses” value [16] of the same compound?
The value was “potentiated”.

And the “potentiation of ACh responses” value [17]?
The value was “potentiated”.
